The record followed here is patent publication US20220281931A1, “CHEMICALLY INDUCIBLE POLYPEPTIDE POLYMERIZATION” (Dana-Farber Cancer Institute, Inc., priority 2019, published 2022).

The structures appear in SMILES notation.

In this test the target is T1, eGFPBCL6 stability reporter (Homo sapiens, UniProt P41182).
T1 construct: the full length BCL6 (BCL6^FL) was fused in-frame with eGFP; expressed in transfected cells; host or cells: HEK293TCas9 cells, lentiviral transduction (Artichoke vector)
Put plainly: Degradation of BCL6 reporter constructs in HEK293T cells (flow cytometry). Format: cell-based. The note with it: HEK293T cells, 1 μM, 1 hour. The method, then: Lentivirus was packaged in HEK293T cells using TransIT (Mirus) and subsequently used for spin infection.
HEK293TCas9 cells expressing indicated constructs in “Artichoke” or “Cilantro2” stability reporter vectors (PGK or SFFV Target-eGFP-IRES-mCherry, puromycin resistance) were plated in 96 well plates and treated for indicated times. BCL6-eGFP and mCherry expression were quantified by flow cytometry (CytoFLEX, Beckman or LSR Fortessa flow cytometer BD Biosciences). All degradation assays were done in at least triplicates. Geometric means of eGFP and mCherry fluorescent signals for live and mCherry positive cells were exported using flow cytometry analysis software (FlowJo, BD). Ratios of eGFP to mCherry were normalized to the average of DMSO-treated controls.
On the technique in general: Flow cytometry measures light scatter and fluorescence of single cells or particles in a stream.

As to `CNC(=O)COc1cc2cc(Nc3nc(N4C[C@H](C)C[C@H](C)C4)ncc3Cl)ccc2n(C)c1=O` [BI-3802, 2-((6-((5-chloro-2-((3S,5R)-3,5-dimethylpiperidin-1-yl)pyrimidin-4-yl)amino)-1-methyl-2-oxo-1,2-dihydroquinolin-3-yl)oxy)-N-methylacetamide], the “degradation of full-length BCL6 reporter (eGFPBCL6^FL)” value is listed as “induced degradation of the full-length BCL6 reporter”.
